Among the data in patent publication US20200138827A1, “SMALL MOLECULE MODULATORS OF HUMAN STING” (Curadev Pharma Limited, priority 2017, published 2020) are EC50 values, retold here.

Structures are written as SMILES. Read-outs that look alike come from different tables or passages of the source.

One assay addresses T1, hSTING(H232) (Homo sapiens, UniProt Q86WV6).
T1 construct: host or cells: HEK293T
Description: Luciferase reporter assay in HEK293T-hSTING-Luciferase cells, H232 polymorph. In kind it is cell-based. The note with it: 20 hr stimulation, read-out: H232 activity (EC50 range). From the text: (§1) • a) Stable STING expressing cells—Stable HEK293T STING-expressing cell lines were generated using plasmids purchased from Invivogen, Calif., USA, that contain STING cDNA cloned into the pUNO-1 vector under hEF1-HTLV promoter and containing the Blasticidin selection cassette. The plasmids hSTING(R232), hSTING(H232), hSTING(HAQ) were directly procured from Invivogen while hSTING (AQ) and hSTING (Q) were derived from hSTING(HAQ) and hSTING (R232) plasmids respectively by using a PCR based site directed mutagenesis method. These vectors were individually transfected into HEK293T cells using Lipofectamine (Invitrogen) and transfected cells were selected under Blasticidin selection. These transfected cells were further subjected to clonal selection using the limiting dilution method to obtain clonally pure populations of HEK cells transfected with each of the above mentioned human STING variants. Only those clones were selected in which ligand independent activation of STING was minimal. • b) Stable Luciferase reporter gene expressing cells—Stable HEK293T Luciferase reporter gene expressing cell lines were generated using pCDNA4 plasmids under an IRF-inducible promoter. This promoter is comprised of five tandem interferon-stimulated response elements (ISRE) fused to an ISG54 minimal promoter. This vector was transfected into HEK293T cells using Lipofectamine (Invitrogen) and transfected cells were selected under Zeocin selection. These transfected cells were further subjected to clonal selection using the limiting dilution method to obtain clonally pure populations of HEK cells transfected the Luciferase reporter construct. Only those clones were selected in which ligand independent induction of luciferase was minimal.
(§2) 5×10^5 clonally selected HEK293T-hSTING-Luciferase cells were seeded in 384-well plates in growth medium and stimulated with novel compounds. After 20 hr of stimulation supernatant were removed and secretary reporter gene activity were measured using the Quanti-Luc detection system (Invivogen) on a Spectramax i3X luminometer.
(§3) The 5 major polymorphisms of human STING are shown in FIG. 1, with their prevalence in human populations indicated.

The target in another assay is T2, WT/R232 STING protein (Homo sapiens, UniProt Q86WV6, H232R).
T2 construct: host or cells: HEK293T
Description: Luciferase reporter assay in HEK293T-hSTING-Luciferase cells, WT/R232. The note with it: 20 hr stimulation, read-out: R232 Activity (EC50 range). In kind it is cell-based. In a few lines:
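Clonal HEK293T cells stably expressing human STING R232 plus an ISRE/ISG54-driven luciferase reporter, 5×10^5 per well, stimulated with compounds for 20 h. Secreted luciferase in supernatant measured by luminescence; […].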

The next assay concerns IRF pathway. Description: Reporter gene expression assay in THP1-Dual cells, IRF axis (secreted Lucia luciferase). In kind it is cell-based, human. The note with it: read-out: THP-IRF activity (EC50 range). As to the method: (§4) THP1-Dual™ cells (Invivogen) were derived from the human THP-1 monocyte cell line by stable integration of two inducible reporter constructs. As a result, THP1-Dual™ cells allow the simultaneous study of the NF-κB pathway, by monitoring the activity of secreted SEAP, and the IRF pathway, by assessing the activity of a secreted luciferase (Lucia). […] THP1-Dual™ cells were seeded in 384-well plates in growth medium and stimulated with novel compounds. After […] of stimulation supernatant were removed and reporter proteins were readily measured in the cell culture supernatant using QUANTI-Blue™ (Invivogen), a SEAP detection reagent, and QUANTI-Luc™ (Invivogen), a luciferase detection reagent on a Spectramax i3X luminometer.

The next assay addresses T3, hSTING(HAQ) (Homo sapiens, UniProt Q86WV6, G230A/H232R/R293Q/R71H).
T3 construct: host or cells: HEK293T
Description: Luciferase reporter assay in HEK293T-hSTING-Luciferase cells, HAQ polymorph. The note with it: 20 hr stimulation, read-out: HAQ activity (EC50 range). Type of assay: cell-based.
From the text: as §1, §2, §3

The next assay relates to NF-κB pathway. Description: Reporter gene expression assay in THP1-Dual cells, NFkB axis (secreted SEAP). In kind it is cell-based, human. Conditions: read-out: THP-NFKB activity (EC50 range). As for the experimental part:
as §4

T2 sequence (Q86WV6 whole entry H232R): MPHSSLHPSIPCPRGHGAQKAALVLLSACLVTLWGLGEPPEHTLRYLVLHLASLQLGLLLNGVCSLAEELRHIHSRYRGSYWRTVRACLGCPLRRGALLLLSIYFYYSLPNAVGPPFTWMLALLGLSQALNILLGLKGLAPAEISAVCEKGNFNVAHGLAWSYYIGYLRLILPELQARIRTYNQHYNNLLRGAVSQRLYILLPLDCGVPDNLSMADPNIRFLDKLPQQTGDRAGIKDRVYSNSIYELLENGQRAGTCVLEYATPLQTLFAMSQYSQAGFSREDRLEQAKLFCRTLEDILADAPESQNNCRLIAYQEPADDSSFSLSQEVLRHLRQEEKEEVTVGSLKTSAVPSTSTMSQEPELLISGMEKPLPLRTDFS
T1 sequence (Q86WV6 whole entry): as the sequence (Q86WV6 whole entry H232R) above, with R232H counted along it
T3 sequence (Q86WV6 whole entry R71H/G230A/H232R/R293Q): as the sequence (Q86WV6 whole entry H232R) above, with R71H, G230A, R293Q counted along it

In the case of `O=C(NCc1cc2ccccc2o1)c1cnc2c(c1)N(Cc1c(F)cccc1Cl)C(=O)CS2` [Example 197, N-(benzofuran-2-ylmethyl)-1-(2-chloro-6-fluorobenzyl)-2-oxo-2,3-dihydro-1H-pyrido[2,3-b][1,4]thiazine-7-carboxamide], the EC50 was 1 to 10 µM on hSTING(H232); 1 to 10 µM on WT/R232 STING protein; > 10 µM with IRF pathway (Homo sapiens, THP1-Dual); 1 to 10 µM at hSTING(HAQ); > 10 µM in the assay with NF-κB pathway (Homo sapiens, THP1-Dual).

As for `Cc1ccc(CNC(=O)c2ccc3c(n2)N(Cc2cc(F)cc(F)c2)C(=O)C(C)S3)o1` (centres unmarked) [Example 203, 4-(3,5-difluorobenzyl)-2-methyl-N-((5-methylfuran-2-yl)methyl)-3-oxo-3,4-dihydro-2H-pyrido[3,2-b][1,4]thiazine-6-carboxamide], the EC50 at hSTING(H232) was 1 to 10 µM; on WT/R232 STING protein it was 1 to 10 µM; in the assay with IRF pathway it was > 10 µM; at hSTING(HAQ) it was 1 to 10 µM; in the assay on NF-κB pathway it was > 10 µM.

As to `CC1Sc2ccc(C(=O)NCc3c(F)cc(F)cc3F)cc2N(Cc2ccccc2F)C1=O` (centres unmarked) [Example 140, 4-(2-fluorobenzyl)-2-methyl-3-oxo-N-(2,4,6-trifluorobenzyl)-3,4-dihydro-2H-benzo[b-1,4]thiazine-6-carboxamide], the EC50 is < 1 µM at WT/R232 STING protein; 1 to 10 µM with IRF pathway (Homo sapiens, THP1-Dual); 1 to 10 µM with NF-κB pathway (Homo sapiens, THP1-Dual).

Regarding `CC1(C)Sc2ccc(C(=O)NCc3cc4ccccc4o3)cc2N(Cc2c(F)cccc2Cl)C1=O` [Example 154, N-(benzofuran-2-ylmethyl)-4-(2-chloro-6-fluorobenzyl)-2,2-dimethyl-3-oxo-3,4-dihydro-2H-benzo[b][1,4] thiazine-6-carboxamide], the EC50 at hSTING(H232) is 1 to 10 µM; at WT/R232 STING protein, < 1 µM; in the assay with IRF pathway (Homo sapiens, THP1-Dual) it was 1 to 10 µM; at hSTING(HAQ), < 1 µM; in the assay on NF-κB pathway (Homo sapiens, THP1-Dual), 1 to 10 µM.

Turning to `O=C(NCc1c(F)cc(F)cc1F)c1ccc2c(c1)N(Cc1c(F)cccc1Cl)C(=O)CC2` [Example 270, 1-(2-chloro-6-fluorobenzyl)-2-oxo-N-(2,4,6-trifluorobenzyl)-1,2,3,4-tetrahydroquinoline-7-carboxamide], the EC50 on hSTING(H232) is < 1 µM; at WT/R232 STING protein it was < 1 µM; in the assay with IRF pathway (Homo sapiens, THP1-Dual), > 10 µM; on hSTING(HAQ), 1 to 10 µM; in the assay on NF-κB pathway (Homo sapiens, THP1-Dual), 1 to 10 µM.

For the compound `O=C(NCc1cc2ccccc2o1)c1ccc2c(c1)N(Cc1ccccc1)C(=O)CS2` [Example 69, N-(benzofuran-2-ylmethyl)-4-benzyl-3-oxo-3,4-dihydro-2H-benzo[b-1,4]thiazine-6-carboxamide], the EC50 at hSTING(H232) was 1 to 10 µM; at WT/R232 STING protein, 1 to 10 µM; with IRF pathway (Homo sapiens, THP1-Dual), > 10 µM; on hSTING(HAQ), 1 to 10 µM; with NF-κB pathway (Homo sapiens, THP1-Dual), > 10 µM.

For `CC1Sc2ccc(C(=O)NCc3cc4ccccc4o3)nc2N(Cc2c(F)cccc2Cl)C1=O` (centres unmarked) [Example 188, N-(benzofuran-2-ylmethyl)-4-(2-chloro-6-fluorobenzyl)-2-methyl-3-oxo-3,4-dihydro-2H-pyrido[3,2-b-1,4]thiazine-6-carboxamide], the EC50 at hSTING(H232) is 1 to 10 µM; on WT/R232 STING protein, < 1 µM; in the assay on IRF pathway (Homo sapiens, THP1-Dual), > 10 µM; on hSTING(HAQ), 1 to 10 µM; in the assay on NF-κB pathway (Homo sapiens, THP1-Dual), 1 to 10 µM.

With `O=C(NCc1cc2ccccc2o1)c1ccc2c(n1)N(Cc1cc(F)cc(F)c1)C(=O)CS2` [Example 183, N-(benzofuran-2-ylmethyl)-4-(3,5-difluorobenzyl)-3-oxo-3,4-dihydro-2H-pyrido[3,2-b-1,4]thiazine-6-carboxamide], the EC50 on hSTING(H232) is 1 to 10 µM; on WT/R232 STING protein, 1 to 10 µM; in the assay on IRF pathway (Homo sapiens, THP1-Dual), > 10 µM; at hSTING(HAQ), 1 to 10 µM; with NF-κB pathway (Homo sapiens, THP1-Dual), 1 to 10 µM.

Take `O=C(NCc1ccco1)c1ccc2c(c1)N(Cc1cccc(F)c1F)C(=O)CS2` [Example 82, 4-(2,3-difluorobenzyl)-N-(furan-2-ylmethyl)-3-oxo-3,4-dihydro-2H-benzo[b-1,4]thiazine-6-carboxamide]: the concentration giving a half-maximal response (EC50) was 1 to 10 µM at hSTING(H232); 1 to 10 µM on WT/R232 STING protein; > 10 µM in the assay with IRF pathway (Homo sapiens, THP1-Dual); 1 to 10 µM at hSTING(HAQ); > 10 µM in the assay on NF-κB pathway (Homo sapiens, THP1-Dual).

`O=C(NCc1c(F)cc(F)cc1F)c1ccc2c(c1)N(C(=O)c1c(F)cccc1Cl)CCS2` [Example 258, 4-(2-chloro-6-fluorobenzoyl)-N-(2,4,6-trifluorobenzyl)-3,4-dihydro-2H-benzo[b][1,4]thiazine-6-carboxamide]: the EC50 is > 10 µM at hSTING(H232); 1 to 10 µM at WT/R232 STING protein; > 10 µM in the assay on IRF pathway (Homo sapiens, THP1-Dual); > 10 µM on hSTING(HAQ); > 10 µM with NF-κB pathway (Homo sapiens, THP1-Dual).

In the case of `O=C(NCc1ccco1)c1ccc2c(c1)N(Cc1ccc(F)cc1)C(=O)CS2` [Example 120, 4-(4-fluorobenzyl)-N-(furan-2-ylmethyl)-3-oxo-3,4-dihydro-2H-benzo[b-1,4]thiazine-6-carboxamide], the EC50 was 1 to 10 µM at hSTING(H232); 1 to 10 µM at WT/R232 STING protein; > 10 µM in the assay with IRF pathway (Homo sapiens, THP1-Dual); > 10 µM at hSTING(HAQ); > 10 µM in the assay on NF-κB pathway (Homo sapiens, THP1-Dual).

Turning to `O=C(NCc1c(F)cc(F)cc1F)c1ccc2c(c1)N(Cc1c(F)cccc1Cl)C(=O)CS2` [Example 112, 4-(2-chloro-6-fluorobenzyl)-3-oxo-N-(2,4,6-trifluorobenzyl)-3,4-dihydro-2H-benzo[b-1,4]thiazine-6-carboxamide], the EC50 is < 1 µM on hSTING(H232); < 1 µM on WT/R232 STING protein; > 10 µM with IRF pathway (Homo sapiens, THP1-Dual); < 1 µM on hSTING(HAQ); > 10 µM with NF-κB pathway (Homo sapiens, THP1-Dual).

As to `CC1Sc2ccc(C(=O)NCc3c(F)cc(F)cc3F)cc2N(Cc2cc(F)cc(F)c2)C1=O` (centres unmarked) [Example 145, 4-(3,5-difluorobenzyl)-2-methyl-3-oxo-N-(2,4,6-trifluorobenzyl)-3,4-dihydro-2H-benzo[b-1,4]thiazine-6-carboxamide], the EC50 was < 1 µM on hSTING(H232); < 1 µM at WT/R232 STING protein; 1 to 10 µM in the assay with IRF pathway; < 1 µM at hSTING(HAQ); 1 to 10 µM with NF-κB pathway.

For `CC1Sc2ccc(C(=O)NCc3cc4ccccc4o3)cc2N(Cc2cc(F)cc(F)c2)C1=O` (centres unmarked) [Example 149, N-(benzofuran-2-ylmethyl)-4-(3,5-difluorobenzyl)-2-methyl-3-oxo-3,4-dihydro-2H-benzo[b][1,4] thiazine-6-carboxamide], the EC50 at hSTING(H232) was < 1 µM; on WT/R232 STING protein, < 1 µM; in the assay with IRF pathway (Homo sapiens, THP1-Dual) it was 1 to 10 µM; on hSTING(HAQ) it was < 1 µM; with NF-κB pathway (Homo sapiens, THP1-Dual), < 1 µM.

For `CC1(CCl)Sc2ccc(C(=O)NCc3ccc(F)cc3F)cc2N(Cc2c(F)cccc2Cl)C1=O` (centres unmarked) [Example 150, 4-(2-chloro-6-fluorobenzyl)-2-(chloromethyl)-N-(2,4-difluorobenzyl)-2-methyl-3-oxo-3,4-dihydro-2H-benzo[b][1,4] thiazine-6-carboxamide], the EC50 in the assay on IRF pathway and in the assay with NF-κB pathway was 1 to 10 µM throughout.

As for `CC1Sc2ccc(C(=O)NCc3c(F)cc(F)cc3F)cc2N(Cc2ccccc2F)C1=O` (centres unmarked) [Example 142, 4-(2-fluorobenzyl)-2-methyl-3-oxo-N-(2,4,6-trifluorobenzyl)-3,4-dihydro-2H-benzo[b-1,4]thiazine-6-carboxamide], the results for the EC50 at hSTING(H232), in the assay on IRF pathway and at hSTING(HAQ) were < 1 µM, 1 to 10 µM and < 1 µM, respectively.

Take `Cc1cnc(CNC(=O)c2cnc3c(c2)N(Cc2cc(F)cc(F)c2)C(=O)C(C)S3)o1` (centres unmarked) [Example 213, 1-(3,5-difluorobenzyl)-3-methyl-N-((5-methyloxazol-2-yl)methyl)-2-oxo-2,3-dihydro-1H-pyrido[2,3-b][1,4]thiazine-7-carboxamide]: the EC50 on WT/R232 STING protein is > 10 µM.
